Values after ≈ are worked out from the molar mass of the structure shown. Values joined by “and” are separate entries in the source; they are usually repeats but may differ in a detail not shown here. Identical values can stand only once. Like-named read-outs stand apart in the source and are kept apart here.
Columns and labels:
Assay type in all cases: cell-based
[1] = tested on: Staphylococcus aureus strain ATCC 6538; experiment: MIC determination by twofold dilution in microplates against Staphylococcus aureus; conditions: for MIC: Staphylococcus aureus
Method: Antimicrobial activity was tested by inhibition of growth of Gram positive bacteria Staphylococcus aureus strain ATCC 6538. All extracts and bacterial isolates from the sponge were screened for this antibacterial activity. Extracts and bacterial strains were also tested against gram negative gamma-proteobacteria (including Vibrios) and alpha-proteobacteria (Rhodobacterales), against Gram positive Bacillales (including Bacillus sp.) and against the yeast Candida albicans.
MICs of each of the compounds 1-9 according to the invention and of commercial methyl- and propyl parabens of the prior art were determined by a twofold dilution method from an initial 100 μg/mL concentration. […] Microplates were incubated for 24 hours at 30° C. with shaking (500 rpm) and optical density at 600 nm was read to estimate bacterial growth. The methyl- and propyl parabens of the prior art were obtained from the company Interchimie in Bobigny, France. […]
The results are reported in the following table 3 in which the MIC is reported in μg/ml and expressed, as in table 1, as the interval a-b, where a is the highest concentration tested at which microorganism are growing and b the lowest concentration that causes 100% growth inhibition.

[2] = tested on: Staphylococcus aureus (ATCC 6538); experiment: MBC determination by subculturing wells with no visible growth onto agar plates; conditions: for MBC/MIC ratio / bactericidal or bacteriostatic effect (from MBC/MIC ratio): S. aureus; for MBC: Staphylococcus aureus, ATCC6538
Method: MBCs were determined to estimate bacterial survival in wells with no visible growth after 24 h by subculturing onto agar plates to count the number of colony-forming-units (CFU/mL).
In order to determine whether the growth inhibition observed against S. aureus was relevant either of a bactericidal or a bacteriostatic effect, the ratio MBC/MIC was calculated.

[3] = tested on: Microbulbifer sp. strain L4-N2; experiment: Antibiotic resistance/sensitivity of bacteria of the strain L4-N2; conditions: kanamycine 30UI; ceftazidime 30 μg
Method: Bacteria of the strain L4-N2 are gram negative, aerobic, rod-shaped, and approximately 1 μm wide by 5 to 7 μm long. They form smooth, convex and mucoid colonies, and produce a non-diffusible brown pigment. They use glucose and display beta-galactosidase, catalase, and gelatinase activities. They are resistant to ampicillin, penicillin and oxacillin and sensitive to kanamycine (30UI) and ceftazidime (30 μg).

[4] = ATCC6538, S. aureus ATCC 6538, 24 hours at 30° C., interval a-b (a highest concentration with growth, b lowest with 100% growth inhibition), triplicate, read-out: MIC
[5] = ATCC6538, S. aureus ATCC 6538, 24 hours at 30° C., interval a-b, triplicate, read-out: MIC
[6] = S. aureus ATCC 6538, lowest concentration yielding colony counts <0.1% of the initial inoculum, read-out: MBC

| MIC [1, 4] [µM] | MIC [1, 5] [µg/mL] | MBC/MIC ratio [2] | Compound | factor of enhancement of antimicrobial activity by unsaturation of the alkyl chain (compound 9 vs compound 8) ([1]; S. aureus, compared MIC values) | bactericidal or bacteriostatic effect (from MBC/MIC ratio) [2] | MBC [2, 6] [µg/mL] | resistance or sensitivity of strain L4-N2 bacteria to the antibiotic [3] | MIC ([1]; ATCC6538, 24 h) | MBC [2] [µg/mL] |
| --- | --- | --- | --- | --- | --- | --- | --- | --- | --- |
| 20.5 to 41.1 | 6.25 to 12.5 | 8 | CCCCCC/C=C/CCCCOC(=O)c1ccc(O)cc1 [Compound 9, 4-Hydroxy-benzoic acid dodec-5-enyl ester] | 4 | bacteriostatic (if MBC/MIC is between 8 and 16 and above 16, the compound is bacteriostatic) | 50 to 100 (≈ 164 to 328 µM) |  |  |  |
| 81.6 to 163 | 25 to 50 | >16 | CCCCCCCCCCCCOC(=O)c1ccc(O)cc1 [Compound 8, 4-Hydroxy-benzoic acid dodecyl ester] |  |  | > 100 |  |  |  |
| 100 to 200 | 25 to 50 | 2 | CCCCCCCCOC(=O)c1ccc(O)cc1 [Compound 3, 4-Hydroxy-benzoic acid octyl ester] |  | bactericidal (If MBC/MIC is less than 4, the compound is bactericidal) | 50 to 100 (≈ 200 to 399 µM) |  |  |  |
| 2.8 to 5.6 | 0.78 to 1.56 | 16 | CCCCCCCCCCOC(=O)c1ccc(O)cc1 [Compound 4, 4-Hydroxy-benzoic acid decyl ester] |  | bacteriostatic (if MBC/MIC is between 8 and 16 and above 16, the compound is bacteriostatic) | 12.5 to 25 (≈ 44.9 to 89.8 µM) |  |  |  |
| 85 to 170 | 25 to 50 | >16 | CCCCCCCC(O)CCOC(=O)c1ccc(O)cc1 (stereo not shown) [Compound 5, 4-Hydroxy-benzoic acid 3-hydroxy-decyl ester] |  |  | > 100 |  |  |  |
| 42.8 to 85.6 | 12.5 to 25 | 2 | CC(C)CCCCCCCCOC(=O)c1ccc(O)cc1 [Compound 6] |  | bactericidal (If MBC/MIC is less than 4, the compound is bactericidal) | 25 to 50 (≈ 85.5 to 171 µM) |  |  |  |

Further lines, the compound ahead of its results:

| Compound | MIC [1, 4] [µM] | MIC [1, 5] [µg/mL] | MBC/MIC ratio [2] | factor of enhancement of antimicrobial activity by unsaturation of the alkyl chain (compound 9 vs compound 8) ([1]; S. aureus, compared MIC values) | bactericidal or bacteriostatic effect (from MBC/MIC ratio) [2] | MBC [2, 6] [µg/mL] | resistance or sensitivity of strain L4-N2 bacteria to the antibiotic [3] | MIC ([1]; ATCC6538, 24 h) | MBC [2] [µg/mL] |
| --- | --- | --- | --- | --- | --- | --- | --- | --- | --- |
| CCOC(=O)c1ccc(O)cc1 [Compound 1, 4-Hydroxy-benzoic acid ethyl ester] | > 602 | > 100 | >16 |  |  | > 100 |  |  |  |
| CC1(C)S[C@@H]2[C@H](NC(=O)[C@H](N)c3ccccc3)C(=O)N2[C@H]1C(=O)O [ampicillin] |  |  |  |  |  |  | resistant |  |  |
| Cc1onc(-c2ccccc2)c1C(=O)N[C@@H]1C(=O)N2[C@@H]1SC(C)(C)[C@@H]2C(=O)O [oxacillin] |  |  |  |  |  |  | resistant |  |  |
| NC[C@H]1O[C@H](O[C@H]2[C@H](O)[C@@H](O[C@H]3O[C@H](CO)[C@@H](O)[C@H](N)[C@H]3O)[C@H](N)C[C@@H]2N)[C@H](O)[C@@H](O)[C@@H]1O [kanamycine] |  |  |  |  |  |  | sensitive |  |  |
| CC(C)CCCCCC(O)CCOC(=O)c1ccc(O)cc1 (stereo not shown) [Compound 7] | 40.5 to 81.1 | 12.5 to 25 | 2 |  | bactericidal (If MBC/MIC is less than 4, the compound is bactericidal) | 25 to 50 (≈ 81.1 to 162 µM) |  |  |  |
| COC(=O)c1ccc(O)cc1 [Methyl paraben, reference compound] | 329 to 658 | 50 to 100 |  |  |  | > 100 |  |  |  |
| CCCCOC(=O)c1ccc(O)cc1 [Compound 2, 4-Hydroxy-benzoic acid butyl ester] |  |  | >16 |  |  |  |  | 129 µM to 258 µM and 25 µg/mL to 50 µg/mL | > 100 |
| CCCOC(=O)c1ccc(O)cc1 [Propyl paraben, reference compound] | 278 to 556 | 50 to 100 |  |  |  | > 100 |  |  |  |
| penicillin |  |  |  |  |  |  | resistant |  |  |
| CC(C)(O/N=C(\C(=O)N[C@@H]1C(=O)N2C(C(=O)[O-])=C(C[n+]3ccccc3)CS[C@H]12)c1csc(N)n1)C(=O)O [ceftazidime] |  |  |  |  |  |  | sensitive |  |  |

From patent publication US20110046220A1, “PARABEN COMPOUNDS” (CENTRE NATIONAL DE LA RECHERCHE SCIENTIFIQUE, priority 2007, published 2011)
